Consider 22 molecules from ChEMBL document CHEMBL1133928, “Design and synthesis of glycolic and mandelic acid derivatives as factor Xa inhibitors” (Bioorg Med Chem Lett, 2001).

In data set [1] the test system is Oryctolagus cuniculus. In words: Antithrombotic effect (Inhibition of thrombus formation) in a rabbit deep vein thrombosis model at 1.1 uM plasma concentration following iv administration. Format: functional.
The target in the next data set is Coagulation factor X (Homo sapiens, UniProt P00742). The data set is described as follows: In vitro inhibitory activity against coagulation factor X.
A short description of data set [2]: Oral bioavailability in rat. Format: ADME, organism-based. The note with it: in vivo.
The target in another data set is Serine protease 1 (Homo sapiens, UniProt P07477). The data set is described as follows: In vitro inhibitory activity against trypsin.
For another data set, the target named is Prothrombin (Homo sapiens, UniProt P00734). The data set is described as follows: In vitro inhibitory activity against thrombin.
Data set [3] deals with Oryctolagus cuniculus. In words: Antithrombotic effect (Inhibition of thrombus formation) in a rabbit deep vein thrombosis model at 0.132 uM plasma concentration following iv administration. The class given is functional.

SMILES strings stand for the structures. pIC50: −log10 of the molar value.

Chain of Serine protease 1 (P07477 whole entry): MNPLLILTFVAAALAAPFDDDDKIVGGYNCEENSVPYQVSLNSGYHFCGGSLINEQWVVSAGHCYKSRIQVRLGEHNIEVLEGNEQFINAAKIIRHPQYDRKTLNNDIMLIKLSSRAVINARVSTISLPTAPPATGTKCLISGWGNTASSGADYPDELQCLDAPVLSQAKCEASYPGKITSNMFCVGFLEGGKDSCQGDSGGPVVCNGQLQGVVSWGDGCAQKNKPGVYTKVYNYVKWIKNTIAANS
Chain of Coagulation factor X (P00742 41-179 limits assumed): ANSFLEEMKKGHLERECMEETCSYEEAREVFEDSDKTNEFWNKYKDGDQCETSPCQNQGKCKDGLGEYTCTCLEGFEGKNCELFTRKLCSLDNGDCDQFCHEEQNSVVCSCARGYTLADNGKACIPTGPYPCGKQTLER
Chain of Coagulation factor X (P00742 235-488 limits assumed): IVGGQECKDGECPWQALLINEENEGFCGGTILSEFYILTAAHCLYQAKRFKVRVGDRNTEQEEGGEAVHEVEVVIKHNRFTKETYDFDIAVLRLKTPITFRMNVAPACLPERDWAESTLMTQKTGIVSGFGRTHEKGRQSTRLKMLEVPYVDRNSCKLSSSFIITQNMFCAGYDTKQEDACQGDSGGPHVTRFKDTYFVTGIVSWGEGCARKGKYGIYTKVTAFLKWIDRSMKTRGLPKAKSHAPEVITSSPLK

Usually Inhibition stands for the share of the control response that was lost under treatment. A higher Inhibition goes with a response far below the control. Usually pIC50 stands for −log10 of the IC50, conventionally taken in molar units. As a reminder, the bioavailability is the share of a dose that reaches the circulation, judged against a reference dose that is usually intravenous. Low readings indicate poor availability, high ones good availability. In the case of `N=C(N)c1cccc(OC(C(=O)Nc2ccc(C(=O)N3CCCC3)cc2)c2ccccc2)c1` (centres undefined), the Inhibition in the data set on Oryctolagus cuniculus [1] worked out at 81%. Further, the results for the pIC50 against Coagulation factor X and at Serine protease 1 were 9.74 and 6.76, respectively. Besides, in data set [2], the bioavailability worked out at 5%.
Turning to `N=C(N)c1cccc(OC(C(=O)Nc2ccc(-c3ccccc3S(N)(=O)=O)cc2F)c2ccccc2)c1` (centres undefined), the pIC50 against Prothrombin is less than 5.00; against Serine protease 1, 5.01.
As for `N=C(N)c1ccc(O)c(OCC(=O)Nc2ccc(-c3ccccc3S(N)(=O)=O)cc2)c1`, the negative-log IC50 (pIC50) against Coagulation factor X is 8.66; against Prothrombin, less than 5.00; at Serine protease 1, 5.64.
The corresponding values for `N=C(N)c1cccc(OC(C(=O)Nc2ccc(-n3ccc(C(F)(F)F)n3)cc2)c2ccccc2)c1` (centres undefined) are 6.77, less than 5.00 and less than 5.00.
As for `N=C(N)c1cccc(OC(C(=O)Nc2ccc(-n3cnc(Cl)c3Cl)cc2)c2ccccc2)c1` (centres undefined), the pIC50 against Coagulation factor X is 7.85; against Serine protease 1 it was 5.27.
Turning to `N=C(N)c1cccc(OCCC(=O)Nc2ccc(-c3ccccc3S(N)(=O)=O)cc2)c1`, the pIC50 at Coagulation factor X is 8.19; on Prothrombin, less than 5.00; against Serine protease 1, 5.59.
For `CN1CCN(C(=O)c2ccc(NC(=O)COc3cccc(C(=N)N)c3)cc2)CC1` the same measures were less than 5.00, less than 5.00 and less than 5.00.
For `N=C(N)c1cccc(OCC(=O)Nc2ccc(C(=O)N3CCOCC3)cc2)c1` the same measures were 5.95, less than 5.00 and less than 5.00.
With `N=C(N)c1cccc(OC(C(=O)Nc2ccc(-c3ccccc3S(N)(=O)=O)cc2)c2ccccc2)c1` (centres undefined), the pIC50 against Coagulation factor X is 9.26; against Prothrombin it was less than 5.00; against Serine protease 1 it was 5.90. This molecule registered an Inhibition in the data set on Oryctolagus cuniculus [3] of 56%. Also, the bioavailability in data set [2] was found to be 5%.
For the molecule `N=C(N)c1cccc(OCC(=O)Nc2ccc(C(=O)N3CCCCCC3)cc2)c1`, the figures for the pIC50 at Coagulation factor X, against Prothrombin and at Serine protease 1 were 5.92, less than 5.00 and less than 5.00, respectively.
For `N=C(N)c1cccc(OCC(=O)Nc2ccc(C(=O)N3CCCC3)cc2)c1`, the figures for the pIC50 against Coagulation factor X, against Prothrombin and against Serine protease 1 were 7.18, less than 5.00 and 5.57, respectively.
The corresponding values for `N=C(N)c1cccc(OC(C(=O)Nc2cc(Cl)c(-n3cccc3)cc2Cl)c2ccccc2)c1` (centres undefined) are 7.03, 5.39 and 5.06.
With `N=C(N)c1cccc(OC(C(=O)Nc2ccc(N3CCOCC3)c(F)c2)c2ccccc2)c1` (centres undefined), the pIC50 at Coagulation factor X was 8.36.
In the case of `N=C(N)c1cccc(OCC(=O)Nc2ccc(C(=O)N3CCC3)cc2)c1`, the negative logarithm of the IC50 (pIC50) is 6.64 at Coagulation factor X, less than 5.00 at Prothrombin and 5.69 against Serine protease 1.
Turning to `N=C(N)c1cccc(OC(C(=O)Nc2ccc(-c3ccccc3S(N)(=O)=O)cc2Br)c2ccccc2)c1` (centres undefined), the results for the pIC50 against Coagulation factor X, on Prothrombin and on Serine protease 1 were 8.49, 5.06 and 5.40, respectively.
The corresponding values for `N=C(N)c1cccc(OC(C(=O)Nc2ccc(C(=O)N3CCCC3)cc2Br)c2ccccc2)c1` (centres undefined) are 9.00, less than 5.00 and 6.28.
On to `N=C(N)c1cccc(OCC(=O)Nc2ccc(C(=O)N3CCCCC3)cc2)c1`, for which the pIC50 against Prothrombin and against Serine protease 1 was less than 5.00 in each case.
As to `N=C(N)c1cccc(OCC(=O)Nc2ccc(C(=O)N3CCCC3C(=O)O)cc2)c1` (centres undefined), the pIC50 against Coagulation factor X, at Prothrombin and on Serine protease 1 was less than 5.00 each time.
In the case of `N=C(N)c1cccc(OCC(=O)Nc2ccc(-c3ccccc3S(N)(=O)=O)cc2)c1`, the pIC50 is 7.68 on Coagulation factor X, less than 5.00 against Prothrombin and 5.47 against Serine protease 1.
`CC(C)(C)OC(=O)C1CCCN1C(=O)c1ccc(NC(=O)COc2cccc(C(=N)N)c2)cc1` (centres undefined): the pIC50 was 5.53 at Coagulation factor X, less than 5.00 against Prothrombin and 5.18 against Serine protease 1.
The corresponding values for `N=C(N)c1cccc(OCC(=O)Nc2ccc(C(=O)N3CC=CC3)cc2)c1` are 8.20, less than 5.00 and 6.06.
The corresponding values for `N=C(N)c1ccc(O)c(OCC(=O)Nc2ccc(C(=O)N3CCCC3)cc2)c1` are 9.15, less than 5.00 and 6.55.
